Values quoted from earlier work, collected in patent US20100035949A1 (priority 2006, published 2010).

Assays:
[1] = humans
[2] = pH dependent; decreases as pH increases from acidic to neutral

oral bioavailability ([1]; known dosage forms): about 25%
oral bioavailability, range ([1]; wide range with large inter- and intra-subject variabilities): 25-40%
permeability [2]: low
SMILES: CCCCC(=O)N(Cc1ccc(-c2ccccc2-c2nnn[nH]2)cc1)[C@H](C(=O)O)C(C)C [valsartan, (S)-N-valeryl-N-{[2′-(1H-tetrazole-5-yl)-biphenyl4-yl]-methyl}-valine]
